The values below come from article PMC11053168, “Agonist-selective activation of individual G-proteins by muscarinic receptors” (Scientific Reports, 2024).

One assay addresses T1, M1 muscarinic receptor (Homo sapiens, UniProt P11229).
T1 construct: membranes
T1 sequence (P11229 1-460): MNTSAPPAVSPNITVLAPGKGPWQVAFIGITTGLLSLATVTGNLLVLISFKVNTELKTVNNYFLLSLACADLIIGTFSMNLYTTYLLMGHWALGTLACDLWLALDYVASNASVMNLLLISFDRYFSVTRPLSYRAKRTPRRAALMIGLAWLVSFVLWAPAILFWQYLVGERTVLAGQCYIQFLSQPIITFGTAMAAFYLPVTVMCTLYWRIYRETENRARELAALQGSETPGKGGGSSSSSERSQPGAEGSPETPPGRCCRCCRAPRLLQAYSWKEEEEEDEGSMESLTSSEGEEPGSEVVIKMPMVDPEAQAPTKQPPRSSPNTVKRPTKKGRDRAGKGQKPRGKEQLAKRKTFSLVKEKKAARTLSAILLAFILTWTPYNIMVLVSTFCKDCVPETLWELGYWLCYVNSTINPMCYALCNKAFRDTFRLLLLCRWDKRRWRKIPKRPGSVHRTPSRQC
The assay is described as follows: [3H]NMS competition binding, membranes from CHO cells expressing M1. The following applies: competition with [3H]NMS, mean ± SD, three experiments, read-out: Binding affinity, negative logarithm of Ki (converted). Here is the method: (§1) Cells were cultured as described previously by Randakova et al.[33]. […] The medium was supplemented with 5 mM butyrate for the last 24 h of culture to increase receptor expression. Cells were washed with (phosphate-buffered saline (PBS), mechanically harvested by scraper and centrifugated 1000 × g for 5 min. Cell pellets were kept at − 80 °C.
(§2) Membranes were prepared as described previously by Randakova et al.[33]. Cells harvested from twenty 100 mm petri dishes (CHO) or 30 ml of cell suspension (Sf9) were suspended in 20 ml of ice-cold incubation medium (100 mM NaCl, 20 mM Na-HEPES, 10 mM MgCl2, pH 7.4) supplemented with 10 mM EDTA and homogenized on ice by two 30‐s strokes using a Polytron homogenizer (Ultra-Turrax; Janke & Kunkel GmbH & Co. KG, IKA-Labortechnik, Staufen, Germany) with a 30 s pause between strokes. Cell homogenates were centrifuged for 5 min at 1000×g to remove whole cells and cell nuclei. The resulting supernatants were centrifuged for 30 min at 30,000×g. Pellets were suspended in a fresh incubation medium, incubated on ice for 30 min, and centrifuged again. The resulting membrane pellets were kept at − 80 °C until assayed within 10 weeks.
(§3) Non-specific binding was determined in the presence of 10 μM unlabelled atropine. Incubations were terminated by filtration through filtration plates multiscreen 96 well Harvest (Merck Millipore) using a Brandel cell harvester (Brandel, Gaithersburg, MD, USA). Filtration plates were dried in a microwave oven, and then 40 μl of liquid scintillator Rotiscint eco plus (Roth) was added. The filtration plates were counted in the Microbeta scintillation counter (PerkinElmer). […] The inhibition constant KI was calculated according to Eq. (2).
(§4) Inhibition constants KI were calculated according to Eq. (2).2 KI=IC50/1+D/KD where IC50 is calculated according to Eq.

In the next assay the target is M3 receptor (Homo sapiens, UniProt P20309). The assay is described as follows: BRET real-time monitoring of G-protein activation via M3 in HEK293T/17 cells. The format is cell-based. On the set-up: expressed in transfected cells; host or cells: HEK293T/17 cells, transient transfection. The following applies: for Activation of Gαq/11 types: saturating concentration (100 μM; 1 mM for JB-12-2, JB-13-1); for Response at Gα15: saturating concentration. The procedure:
HE/K293T17 cells were obtained from The Global Bioresource Center ATCC (Manassas, VA, USA). Cells were grown in 100 mm petri dishes in Dulbecco’s modified Eagle’s medium (DMEM) supplemented with 10% fetal bovine serum (FBS), MEM non-essential amino acids, 1 mM sodium pyruvate, and antibiotics (100 units/ml penicillin and 100 μg/ml streptomycin) at 37 °C in a humidified incubator containing 5% CO2[41]. Transfection was performed according to Masuho et al.[41]. […] Gα14 subunit was co-transfected with Ric-8A chaperone (0.21 μg). Cells were cotransfected with a pcDNA3.1 construct encoding the catalytic subunit of pertussis toxin (PTX-S1) (0.21 μg) and constructs encoding Gα15, Gα14, Gα11, Gαq to ensure that the small BRET signals were not contaminated by the possible recruitment of endogenous Gαi/o proteins. The empty vector pcDNA3.1 was used to normalize the amount of DNA in each transfection.
To examine the activation of G-protein signalling in live cells, agonist-dependent cellular measurements of BRET between Venus-Gβ1γ2 and masGRK3ct-Nluc were performed as described by Masuho et al.[41]. […] Cells were harvested by centrifugation at 500×g for 5 min and were resuspended in BRET buffer. About 50,000 to 100,000 cells per well were distributed in 96-well flat-bottomed white microplates (Greiner Bio-One) in a volume of 25 µl. […] BRET measurements were made with a microplate reader (POLARstar Omega, BMG Labtech) equipped with two emission photomultiplier tubes, which enabled the detection of two emissions simultaneously with the highest possible resolution of 20 ms per data point. All measurements were performed at room temperature. […] The average baseline value (basal BRET ratio) recorded before stimulation of cells with an agonist was subtracted from the experimental BRET signal values to obtain the ΔBRET ratio.

Another assay has as its target T2, M2 muscarinic receptor (Homo sapiens, UniProt P08172).
T2 construct: membranes
T2 sequence (P08172 1-466): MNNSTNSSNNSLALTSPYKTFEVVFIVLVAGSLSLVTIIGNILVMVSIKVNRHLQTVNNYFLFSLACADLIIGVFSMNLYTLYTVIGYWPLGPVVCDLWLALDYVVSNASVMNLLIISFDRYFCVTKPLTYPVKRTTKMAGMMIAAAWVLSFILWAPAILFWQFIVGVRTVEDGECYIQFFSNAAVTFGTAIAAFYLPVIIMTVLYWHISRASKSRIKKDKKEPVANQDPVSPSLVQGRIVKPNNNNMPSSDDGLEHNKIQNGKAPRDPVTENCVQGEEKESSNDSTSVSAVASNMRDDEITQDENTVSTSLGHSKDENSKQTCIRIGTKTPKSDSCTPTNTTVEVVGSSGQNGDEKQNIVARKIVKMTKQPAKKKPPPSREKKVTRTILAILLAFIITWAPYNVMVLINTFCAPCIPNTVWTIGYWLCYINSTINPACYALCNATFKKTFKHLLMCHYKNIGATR
The assay is described as follows: [3H]NMS competition binding, membranes from CHO cells expressing M2. Here is the method: as §1, §2, §3, §4

Another assay has as its target T3, M3 muscarinic receptor (Homo sapiens, UniProt P20309).
T3 construct: membranes
The assay is described as follows: [3H]NMS competition binding, membranes from CHO cells expressing M3. The note with it: competition with [3H]NMS, mean ± SD, three experiments, read-out: Binding affinity, negative logarithm of Ki (converted). The procedure: as §1, §2, §3, §4

Where two headings read alike, the source gives them in different places.

The Ki is the dissociation constant of the complex between target and ligand, obtained from inhibition or displacement.

T3 sequence (P20309 whole entry): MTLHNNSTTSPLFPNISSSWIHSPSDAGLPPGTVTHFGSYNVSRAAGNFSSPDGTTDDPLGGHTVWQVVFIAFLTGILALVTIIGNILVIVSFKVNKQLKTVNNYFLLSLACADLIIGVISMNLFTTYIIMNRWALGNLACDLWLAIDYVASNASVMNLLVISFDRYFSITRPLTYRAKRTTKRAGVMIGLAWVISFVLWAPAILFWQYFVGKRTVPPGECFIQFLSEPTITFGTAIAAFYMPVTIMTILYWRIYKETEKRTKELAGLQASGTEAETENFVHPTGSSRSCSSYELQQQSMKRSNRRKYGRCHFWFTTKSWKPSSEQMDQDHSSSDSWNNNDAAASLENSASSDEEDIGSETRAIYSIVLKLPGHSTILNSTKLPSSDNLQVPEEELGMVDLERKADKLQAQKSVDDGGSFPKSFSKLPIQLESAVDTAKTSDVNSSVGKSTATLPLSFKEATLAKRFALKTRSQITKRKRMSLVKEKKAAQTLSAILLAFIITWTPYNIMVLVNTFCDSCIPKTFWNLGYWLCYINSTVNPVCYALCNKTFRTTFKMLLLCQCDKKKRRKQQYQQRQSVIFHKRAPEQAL
Chain of M3 receptor (P20309 whole entry): as above

Turning to `c1csc(C[N+]23CCC(CC2)CC3)c1` [JB-8A], the Ki on M1 muscarinic receptor is 6.92 µM; at M2 muscarinic receptor, 3.24 µM; on M3 muscarinic receptor, 14.8 µM. In addition, the “Activation of Gαq/11 types” value at M3 receptor was “did not activate any Gαq/11 type”.

On to `C[N+]1(Cc2cccs2)CCOCC1` [JB-12-2], for which the inhibition constant Ki on M1 muscarinic receptor is 85.1 µM; on M2 muscarinic receptor it was 17.4 µM; on M3 muscarinic receptor, 93.3 µM. Also, the “Response at Gα15” value on M3 receptor was “activated”. The “Activation of Gαq/11 types” value on M3 receptor is given as “activated all Gαq/11 types”.

`COC(=O)C1=CCCN(Cc2cccs2)C1` [JB-13-1]: the Ki on M1 muscarinic receptor is 115 µM; on M2 muscarinic receptor (M2, competition with [3H]NMS, mean ± SD, three experiments, read-out: Binding affinity, negative logarithm of Ki (converted)), 23.4 µM; at M3 muscarinic receptor it was 355 µM. Moreover, the “Activation of Gαq/11 types” value on M3 receptor is “did not activate any Gαq/11 type”.

For `C[N+]1(Cc2cccs2)CC=CCC1` (stereo not drawn) [JR-6, 1-methyl-1-[(thiophen-2-yl)methyl]-1,2,3,6-tetra hydropyridin-1-ium], on M3 receptor (100 μM), the “Activation magnitude at Gq, % of CBC” value is “approximately 30%” and the “Response at Gα14” value is on record as “weak response”. Also, at M3 receptor, the “Response at Gα15” value is “no response”.

On to `C[N+]1(Cc2ccc(Cl)s2)CC=CCC1` (stereo not drawn) [PN-152, 1-[(5-chlorothiophen-2-yl)methyl]-1-methyl-1,2,3,6-tetrahydropyridin-1-ium], for which the “Activation magnitude at Gq, % of CBC” value on M3 receptor (100 μM) was determined as 10%. For the same molecule, on M2 muscarinic receptor (M2 (Table 1)), the “Experimental binding affinity relative to JR-6” value was “ten-times higher”.
